Reference: patent US11566007B2, “Ras inhibitors” (Revolution Medicines, Inc., priority 2019, dated 2023)

What was measured:
NCI-H358 (K-Ras G12C) = experiment: CellTiter-Glo cell viability assay, NCI-H358; assay type: cell-based, human; settings: Homo sapiens, NCI-H358, 120 h, NCI-H358, 5-day treatment; class symbols; read-out: Additional H358 Cell Viability assay data (K-Ras G12C, IC50)
In short: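 Viability of K-Ras mutant lines is measured by ATP luminescence after five days of compound treatment. Percent of DMSO control is calculated and dose-response data are fitted with a four-parameter logistic equation.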

K-Ras G12C = K-Ras G12C (Homo sapiens (Human), UniProt P01116+P62937, G12C); experiment: Ras-Raf (BRAF RBD) disruption / FRET / MOA assay, KRAS G12C; assay type: biochemical; settings: KRAS G12C; Ras-Raf disruption/FRET/MOA assay; read-out: IC50* KRAS G12C FRET data
In short: (§1)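 Compound-driven ternary complex of nucleotide-loaded Ras with cyclophilin A, disrupting BRAF RBD binding. 10-point 3-fold dilution from 30 μM final, 3 h at 25° C, then anti-His Eu-W1024 (10 nM) and anti-GST allophycocyanin (50 nM) for 1.5 h. IC50 from TR-FRET ratio decrease versus DMSO.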

K-Ras G13C = K-Ras G13C (Homo sapiens (Human), UniProt P01116+P62937, G13C); experiment: Ras-Raf (BRAF RBD) disruption / FRET / MOA assay, KRAS G13C; assay type: biochemical; settings: KRAS G13C; Ras-Raf disruption/FRET/MOA assay; read-out: IC50* KRAS G13C FRET data
In short: as §1

KRAS G12S = KRAS G12S (Homo sapiens (Human), UniProt P01116+P62937, G12S); experiment: Ras-Raf (BRAF RBD) disruption / FRET / MOA assay, KRAS G12S; assay type: biochemical; settings: Ras-Raf disruption/FRET/MOA assay; class symbols; read-out: KRAS G12S FRET data IC50
In short: as §1

KRAS G12D = KRAS G12D (Homo sapiens (Human), UniProt P01116+P62937, G12D); experiment: Ras-Raf (BRAF RBD) disruption / FRET / MOA assay, KRAS G12D; assay type: biochemical; settings: Ras-Raf disruption/FRET/MOA assay; class symbols; read-out: KRAS G12D FRET data IC50
In short: as §1

KRAS WT = KRAS WT (Homo sapiens (Human), UniProt P01116+P62937); experiment: Ras-Raf (BRAF RBD) disruption / FRET / MOA assay, KRAS WT; assay type: biochemical; settings: read-out: IC50* KRAS WT FRET data
In short: as §1

KRAS G13D = KRAS G13D (Homo sapiens (Human), UniProt P01116+P62937, G13D); experiment: Ras-Raf (BRAF RBD) disruption / FRET / MOA assay, KRAS G13D; assay type: biochemical; settings: read-out: IC50* KRAS G13D FRET data
In short: as §1

KRAS Q61H = KRAS Q61H (Homo sapiens (Human), UniProt P01116+P62937, Q61H); experiment: Ras-Raf (BRAF RBD) disruption / FRET / MOA assay, KRAS Q61H; assay type: biochemical; settings: Ras-Raf disruption/FRET/MOA assay; class symbols; read-out: KRAS Q61H FRET data IC50
In short: (§2)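 Compounds (30 μM top final, 10-point 3-fold dilutions) incubated 3 h at 25° C with nucleotide-loaded Ras, cyclophilin A and BRAF RBD. Detection with 10 nM anti-His Eu-W1024 and 50 nM anti-GST allophycocyanin over another 1.5 h. Lowered TR-FRET ratio relative to DMSO wells gives IC50.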

NRAS G12C = NRAS G12C (Homo sapiens (Human), UniProt P01111+P62937, G12C); experiment: Ras-Raf (BRAF RBD) disruption / FRET / MOA assay, NRAS G12C; assay type: biochemical; settings: read-out: IC50* NRAS G12C FRET data
In short: as §1

NRAS Q61R = NRAS Q61R (Homo sapiens (Human), UniProt P01111+P62937, Q61R); experiment: Ras-Raf (BRAF RBD) disruption / FRET / MOA assay, NRAS Q61R; assay type: biochemical; settings: NRAS Q61R; Ras-Raf disruption/FRET/MOA assay; read-out: IC50* NRAS Q61R FRET data
In short: as §2

NRAS Q61K = NRAS Q61K (Homo sapiens (Human), UniProt P01111+P62937, Q61K); experiment: Ras-Raf (BRAF RBD) disruption / FRET / MOA assay, NRAS Q61K; assay type: biochemical; settings: NRAS Q61K; Ras-Raf disruption/FRET/MOA assay; read-out: IC50* NRAS Q61K FRET data
In short: as §2

NRAS WT = NRAS WT (Homo sapiens (Human), UniProt P01111+P62937); experiment: Ras-Raf (BRAF RBD) disruption / FRET / MOA assay, NRAS WT; assay type: biochemical; settings: read-out: IC50* NRAS WT FRET data
In short: as §2

Chain of NRAS G12C (P01111 whole entry G12C): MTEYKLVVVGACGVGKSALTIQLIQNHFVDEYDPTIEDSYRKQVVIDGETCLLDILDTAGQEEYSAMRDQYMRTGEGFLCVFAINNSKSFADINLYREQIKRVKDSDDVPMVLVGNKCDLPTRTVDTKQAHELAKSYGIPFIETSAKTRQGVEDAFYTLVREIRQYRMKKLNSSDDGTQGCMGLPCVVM
Chain of NRAS G12C (P62937 whole entry): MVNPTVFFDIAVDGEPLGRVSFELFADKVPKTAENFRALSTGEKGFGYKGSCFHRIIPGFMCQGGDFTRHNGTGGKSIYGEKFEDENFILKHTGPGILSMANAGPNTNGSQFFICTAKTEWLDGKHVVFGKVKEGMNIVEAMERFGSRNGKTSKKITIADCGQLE
Chain of K-Ras G12C (P01116-2 other isoform, or with tags, fused parts or gaps G12C): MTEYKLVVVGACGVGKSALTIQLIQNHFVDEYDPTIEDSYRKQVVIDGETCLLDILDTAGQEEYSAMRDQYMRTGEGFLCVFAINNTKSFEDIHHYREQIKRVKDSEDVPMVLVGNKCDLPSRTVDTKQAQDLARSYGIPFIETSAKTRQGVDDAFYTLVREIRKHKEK
Chain of K-Ras G12C (P62937 whole entry): as the sequence (P62937 whole entry) above
Chain of KRAS G13D (P01116-2 other isoform, or with tags, fused parts or gaps G13D): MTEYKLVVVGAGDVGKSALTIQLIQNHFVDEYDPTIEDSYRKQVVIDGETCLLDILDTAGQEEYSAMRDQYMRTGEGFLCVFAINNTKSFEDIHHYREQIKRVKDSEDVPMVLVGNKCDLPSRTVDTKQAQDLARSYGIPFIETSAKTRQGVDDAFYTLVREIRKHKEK
Chain of KRAS G13D (P62937 whole entry): as the sequence (P62937 whole entry) above
Chain of KRAS G12D (P01116-2 other isoform, or with tags, fused parts or gaps G12D): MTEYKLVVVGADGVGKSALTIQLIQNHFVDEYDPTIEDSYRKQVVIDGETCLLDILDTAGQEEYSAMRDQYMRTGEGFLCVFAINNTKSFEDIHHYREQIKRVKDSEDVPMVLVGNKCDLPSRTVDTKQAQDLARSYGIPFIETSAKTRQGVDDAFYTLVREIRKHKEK
Chain of KRAS G12D (P62937 whole entry): as the sequence (P62937 whole entry) above
Chain of NRAS WT (P01111 whole entry): as the sequence (P01111 whole entry G12C) above, with C12G counted along it
Chain of NRAS WT (P62937 whole entry): as the sequence (P62937 whole entry) above
Chain of KRAS WT (P01116-2 other isoform, or with tags, fused parts or gaps): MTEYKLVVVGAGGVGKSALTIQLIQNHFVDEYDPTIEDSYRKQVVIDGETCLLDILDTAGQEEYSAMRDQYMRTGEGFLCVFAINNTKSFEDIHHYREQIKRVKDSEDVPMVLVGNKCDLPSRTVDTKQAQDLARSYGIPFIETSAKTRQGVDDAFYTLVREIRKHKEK
Chain of KRAS WT (P62937 whole entry): as the sequence (P62937 whole entry) above
Chain of KRAS Q61H (P01116-2 other isoform, or with tags, fused parts or gaps Q61H): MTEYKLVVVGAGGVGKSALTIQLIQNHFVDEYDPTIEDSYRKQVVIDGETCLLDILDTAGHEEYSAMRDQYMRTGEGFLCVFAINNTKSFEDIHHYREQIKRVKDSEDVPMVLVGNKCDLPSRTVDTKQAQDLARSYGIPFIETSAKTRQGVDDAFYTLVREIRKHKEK
Chain of KRAS Q61H (P62937 whole entry): as the sequence (P62937 whole entry) above
Chain of K-Ras G13C (P01116-2 other isoform, or with tags, fused parts or gaps G13C): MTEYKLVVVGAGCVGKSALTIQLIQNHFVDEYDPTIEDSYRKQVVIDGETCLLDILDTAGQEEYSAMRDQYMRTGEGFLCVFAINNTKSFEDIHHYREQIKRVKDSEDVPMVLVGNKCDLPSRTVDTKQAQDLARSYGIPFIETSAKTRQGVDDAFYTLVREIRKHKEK
Chain of K-Ras G13C (P62937 whole entry): as the sequence (P62937 whole entry) above
Chain of NRAS Q61R (P01111 whole entry Q61R): as the sequence (P01111 whole entry G12C) above, with C12G, Q61R counted along it
Chain of NRAS Q61R (P62937 whole entry): as the sequence (P62937 whole entry) above
Chain of KRAS G12S (P01116-2 other isoform, or with tags, fused parts or gaps G12S): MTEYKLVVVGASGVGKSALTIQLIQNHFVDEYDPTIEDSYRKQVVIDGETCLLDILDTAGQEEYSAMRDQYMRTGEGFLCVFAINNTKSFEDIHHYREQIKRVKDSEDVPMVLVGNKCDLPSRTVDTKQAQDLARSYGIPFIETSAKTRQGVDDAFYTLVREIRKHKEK
Chain of KRAS G12S (P62937 whole entry): as the sequence (P62937 whole entry) above
Chain of NRAS Q61K (P01111 whole entry Q61K): as the sequence (P01111 whole entry G12C) above, with C12G, Q61K counted along it
Chain of NRAS Q61K (P62937 whole entry): as the sequence (P62937 whole entry) above

In the case of `CCn1c(-c2cccnc2[C@H](C)OC)c2c3cc(ccc31)-c1csc(n1)C[C@H](NC(=O)[C@H](C(C)C)N(C)C(=O)N1CCC13CN(C(=O)/C=C/CN(C)C)C3)C(=O)N1CCC[C@H](N1)C(=O)OCC(C)(C)C2` (atropisomer, axis not shown) [Example A598], the IC50 (NCI-H358 (K-Ras G12C)) is reported as 10 to 100 nM, the IC50 (K-Ras G12C) is reported as 10 to 100 nM and the IC50 (K-Ras G13C) is reported as 100 to 1000 nM. For the same molecule, the IC50 (KRAS G12S) was 10 to 100 nM, the IC50 (KRAS G12D) was 100 to 1000 nM and the IC50 (KRAS WT) was 10 to 100 nM. It also gave an IC50 (KRAS G13D) of 100 to 1000 nM, an IC50 (KRAS Q61H) of less than 10 nM and an IC50 (NRAS G12C) of 10 to 100 nM. The IC50 (NRAS Q61R) was 10 to 100 nM, the IC50 (NRAS Q61K) was 10 to 100 nM and the IC50 (NRAS WT) was 10 to 100 nM.
`C=CC(=O)N1CCOC2(CCN(C(=O)N(C)[C@H](C(=O)N[C@H]3Cc4cccc(n4)-c4ccc5c(c4)c(c(-c4cccnc4[C@H](C)OC)n5CC(F)(F)F)CC(C)(C)COC(=O)[C@@H]4CCCN(N4)C3=O)C(C)C)CC2)C1` (atropisomer, axis not shown) [Example A607, 4-acryloyl-N-((2S)-1-(((6^3S,4S)-1^2-(2-((S)-1-methoxyethyl)pyridin-3-yl)-10,10-dimethyl-5,7-dioxo-1^1-(2,2,2-trifluoroethyl)-6^1,6^2,6^3,6^4,6^5,6^6-hexahydro-1^1H-8-oxa-1(5,3)-indola-6(1,3)-pyridazina-2(2,6)-pyridinacycloundecaphane-4-yl)amino)-3-methyl-1-oxobutan-2-yl)-N-methyl-1-oxa-4,9-diazaspiro[5.5]undecane-9-carboxamide] gave an IC50 (NCI-H358 (K-Ras G12C)) of 10 to 100 nM, an IC50 (K-Ras G12C) of 100 to 1000 nM and an IC50 (K-Ras G13C) of 10 to 100 nM. It also gave an IC50 (KRAS G12S) of 1000 to 10000 nM, an IC50 (KRAS G12D) of 1000 to 10000 nM and an IC50 (KRAS WT) of 100 to 1000 nM. For the same molecule, the IC50 (KRAS G13D) was 1000 to 10000 nM, the IC50 (KRAS Q61H) was 100 to 1000 nM and the IC50 (NRAS G12C) was 100 to 1000 nM. For the same molecule, the IC50 (NRAS Q61R) was 100 to 1000 nM, the IC50 (NRAS Q61K) was 100 to 1000 nM and the IC50 (NRAS WT) was 100 to 1000 nM.
`CCn1c(-c2cccnc2[C@H](C)OC)c2c3cc(ccc31)-c1csc(n1)C[C@H](NC(=O)[C@H](C(C)C)N(C)C(=O)N1CCC13CN(C(=O)/C=C/CN1CCOCC1)C3)C(=O)N1CCC[C@H](N1)C(=O)OCC(C)(C)C2` (atropisomer, axis not shown) [Example A611] showed an IC50 (NCI-H358 (K-Ras G12C)) of 10 to 100 nM, an IC50 (K-Ras G12C) of 100 to 1000 nM and an IC50 (K-Ras G13C) of 100 to 1000 nM. For the same molecule, the IC50 (KRAS G12S) was 100 to 1000 nM, the IC50 (KRAS G12D) was 1000 to 10000 nM and the IC50 (KRAS WT) was 100 to 1000 nM. It also gave an IC50 (KRAS G13D) of 100 to 1000 nM, an IC50 (KRAS Q61H) of 10 to 100 nM and an IC50 (NRAS G12C) of 100 to 1000 nM. The IC50 (NRAS Q61R) was 10 to 100 nM, the IC50 (NRAS Q61K) was 10 to 100 nM and the IC50 (NRAS WT) was 100 to 1000 nM.
For `CCn1c(-c2cccnc2[C@H](C)OC)c2c3cc(ccc31)-c1cccc(c1)C[C@H](NC(=O)[C@@H](COC1CN(C(=O)C#CC(C)(C)N(C)C3CC3)C1)C(C)C)C(=O)N1CCC[C@H](N1)C(=O)OCC(C)(C)C2` (atropisomer, axis not shown) [Example A613], the IC50 (NCI-H358 (K-Ras G12C)) was 10 to 100 nM, the IC50 (K-Ras G12C) was 100 to 1000 nM and the IC50 (K-Ras G13C) was greater than 10000 nM. For the same molecule, the IC50 (KRAS G12S) was greater than 10000 nM, the IC50 (KRAS G12D) was greater than 10000 nM and the IC50 (KRAS WT) was greater than 10000 nM. The IC50 (KRAS G13D) was greater than 10000 nM, the IC50 (KRAS Q61H) was greater than 10000 nM and the IC50 (NRAS G12C) was 1000 to 10000 nM. The IC50 (NRAS Q61R) was greater than 10000 nM, the IC50 (NRAS Q61K) was greater than 10000 nM and the IC50 (NRAS WT) was greater than 10000 nM.
With `CCn1c(-c2cccnc2[C@H](C)OC)c2c3cc(ccc31)N1CCC[C@@H](C[C@H](NC(=O)[C@H](C(C)C)N(C)C(=O)[C@H]3CCN(C(=O)C#CC(C)(C)N4CCC4)C3)C(=O)N3CCC[C@H](N3)C(=O)OCC(C)(C)C2)C1` (atropisomer, axis not shown) [Example A617] the IC50 (NCI-H358 (K-Ras G12C)) was 10 to 100 nM, the IC50 (K-Ras G12C) was 10 to 100 nM and the IC50 (K-Ras G13C) was greater than 10000 nM. It also gave an IC50 (KRAS G12S) greater than 10000 nM, an IC50 (KRAS G12D) greater than 10000 nM and an IC50 (KRAS WT) greater than 10000 nM. For the same molecule, the IC50 (KRAS G13D) was greater than 10000 nM, the IC50 (KRAS Q61H) was greater than 10000 nM and the IC50 (NRAS G12C) was 10 to 100 nM. It also gave an IC50 (NRAS Q61R) greater than 10000 nM, an IC50 (NRAS Q61K) greater than 10000 nM and an IC50 (NRAS WT) greater than 10000 nM.
`C=CC(=O)N1CCC[C@H]2CN(C(=O)N(C)[C@H](C(=O)N[C@H]3Cc4nc(cs4)-c4ccc5c(c4)c(c(-c4cccnc4[C@H](C)OC)n5CC)CC(C)(C)COC(=O)[C@@H]4CCCN(N4)C3=O)C(C)C)C[C@H]21` (atropisomer, axis not shown) [Example A618] was tested, and the IC50 (NCI-H358 (K-Ras G12C)) was 10 to 100 nM, the IC50 (K-Ras G12C) was 100 to 1000 nM and the IC50 (K-Ras G13C) was 100 to 1000 nM. It also gave an IC50 (KRAS G12S) of 100 to 1000 nM, an IC50 (KRAS G12D) of 1000 to 10000 nM and an IC50 (KRAS WT) of 100 to 1000 nM. For the same molecule, the IC50 (KRAS G13D) was 1000 to 10000 nM, the IC50 (KRAS Q61H) was 100 to 1000 nM and the IC50 (NRAS G12C) was 100 to 1000 nM. For the same molecule, the IC50 (NRAS Q61R) was 100 to 1000 nM, the IC50 (NRAS Q61K) was 100 to 1000 nM and the IC50 (NRAS WT) was 100 to 1000 nM.
